Test results from publication PMC7565067, “Identification and Target-Modification of SL-BBI: A Novel Bowman–Birk Type Trypsin Inhibitor from Sylvirana latouchii” (Biomolecules, 2020).
Where a SMILES comes first, the peptide text is derived from it. Bridges are numbered along the chain shown (N, C = ends).

Tests used:
chymotrypsin = chymotrypsin (Bos taurus, UniProt P00766); experiment: biochemical
Description: Ten microliters of trypsin/chymotrypsin (Sigma Aldrich, Dorset, UK) working solution (0.1 µM in 1 mM HCl) was added into the wells of a black micro-titre plate with corresponding substrate and peptide replicates (0.1–100 µM) in 10 mM phosphate buffer (final volume 210 μL). Additionally, Phe-Pro-Arg- NHMec (Bachem, Cambridge, UK) and Succinyl-Ala-Ala-Pro-Phe-NHMec (Bachem, Cambridge, UK) were performed as substrates for trypsin and chymotrypsin, respectively. The fluorescence intensity of NHMec was monitored at 37 °C continuously for 30 min by a FLUOstar OPTIMA multi-well plate reader (BMG Labtech, Ortenberg, Germany) at wavelengths of 460 nm for emission and 395 nm for excitation.

MCF-7 cells = type: cell-based, human; settings: 24 h; SD
Description: (§1) MTT (3-(4, 5-dimethylthiazol-2-yl)-2, 5-diphenyltetrazolium bromide) cell viability assay was performed to evaluate the cell proliferation inhibitory rate of synthetic peptides in a series of human cell lines: PC-3 (ATCC® CRL-1435™), H157 (RRID: CVCL_0463), H460 (ATCC® HTB-177™), H838 (ATCC® CRL-5844™), H23 (ATCC® CRL-5800™), MCF-7 (ATCC® HTB-22™), HCT116 (ATCC® CCL-247™), U251MG (ECACC-09063001) and HMEC-1 (ATCC® CRL-3243™) which was detailed in the previous report.

H838 cells = type: cell-based, human; settings: 24 h; SD
Description: as §1

H23 cells = type: cell-based, human; settings: 24 h; SD
Description: as §1

H157 cells = type: cell-based, human; settings: 24 h; SD
Description: as §1

PC-3 cells = type: cell-based, human; settings: 24 h; SD
Description: as §1

HMEC-1 cells = type: cell-based, human; settings: 24 h; SD
Description: as §1

H460 cells = type: cell-based, human; settings: 24 h; SD
Description: as §1

[1] = test system: Staphylococcus aureus (ATCC 12600); type: cell-based
Description: (§2) Antimicrobial activity of the synthetic peptides was assessed by determination of MIC/MBC on Escherichia coli (ATCC 11775), Staphylococcus aureus (ATCC 12600), Candida albicans (NCYC 1467) and methicillin-resistant Staphylococcus aureus (MRSA) (NCTC 12493) according to the previous report. Briefly, the test microorganism was inoculated in Mueller Hinton Broth (MHB) medium and incubated overnight at 37 °C. Then the subculture was performed until the optical density (OD) reached the logarithmic growth phase and diluted to 1 × 10^6 colony forming units (CFU)/mL for bacteria and 1 × 10^5 CFU/mL for fungus obtained. The synthetic peptides with the concentration from 1 to 512 µM were double diluted by PBS. Five replications of sterile control, vehicle control and growth control were set as 100 µL MHB/well, 100 µL 1% PBS with subculture solution/well and 100 µl subculture solution/well, respectively. The 96-well plate was incubated at 37 °C overnight. The absorbance of each well at 550 nm was measured by Synergy HT plate reader (Biotech, Minneapolis, MN, USA). The minimum bactericidal concentration was detected by sub-culturing treated samples onto Mueller-Hinton agar (MHA) plate for another eighteen hours at 37 °C.

[2] = test system: methicillin-resistant Staphylococcus aureus (MRSA) (NCTC 12493); type: cell-based
Description: as §2

[3] = test system: Candida albicans (NCYC 1467); type: cell-based
Description: as §2

[4] = test system: Escherichia coli (ATCC 11775); type: cell-based
Description: as §2

Row | MIC, MRSA [2] [µM] | Compound | Ki (chymotrypsin) [nM] | IC50 (MCF-7 cells) [µM] | IC50 (H838 cells) [µM] | IC50 (H23 cells) [µM] | IC50 (H157 cells) [µM] | IC50 (PC-3 cells) [µM] | IC50 (HMEC-1 cells) [µM] | IC50 (H460 cells) [µM] | MBC, S. aureus [1] | MIC, S. aureus [1] [µM] | MBC, MRSA [2] [µM] | MBC, C. albicans [3] | MIC, C. albicans [3] [µM] | MBC, E. coli [4] | MIC, E. coli [4] [µM]
1 | >512 | CC[C@H](C)[C@@H]1NC(=O)[C@H](CO)NC(=O)[C@H](CCCCN)NC(=O)[C@H]([C@@H](C)O)NC(=O)[C@H](Cc2c[nH]c3ccccc23)NC(=O)[C@@H](NC(=O)CNC(=O)[C@H](CCCNC(=N)N)NC(=O)[C@H](CC(C)C)NC(=O)[C@H](C)NC(=O)[C@H](C)N)CSSC[C@@H](C(=O)N[C@@H](CCCCN)C(N)=O)NC(=O)[C@@H]2CCCN2C(=O)[C@H](CCCCN)NC(=O)[C@@H]2CCCN2C(=O)[C@@H]2CCCN2C1=O [K-SL] (H-AALRGCWTKSIPPKPCK-NH2; disulfide 6-16) |  |  |  |  |  |  |  |  | 64/64 μM |  | >512 | 64/64 μM |  | 128/128 μM | 
2 | >512 | CC(C)C[C@H](NC(=O)[C@@H]1CSSC[C@H](NC(=O)CNC(=O)[C@H](CCCNC(=N)N)NC(=O)[C@H](CC(C)C)NC(=O)[C@H](C)NC(=O)[C@@H](N)CO)C(=O)N[C@@H](Cc2c[nH]c3ccccc23)C(=O)N[C@@H]([C@@H](C)O)C(=O)N[C@@H](CCCCN)C(=O)N[C@@H](CO)C(=O)N[C@@H](Cc2ccc(O)cc2)C(=O)N2CCC[C@H]2C(=O)N2CCC[C@H]2C(=O)N[C@@H](CCCCN)C(=O)N2CCC[C@H]2C(=O)N1)C(N)=O [SL-BBI] (H-SALRGCWTKSYPPKPCL-NH2; disulfide 6-16) |  |  |  |  |  |  |  |  | 256 µM | 256 | >512 | 256 µM | 256 | 128/128 μM | 

Row | Compound | MIC, MRSA [2] [µM] | Ki (chymotrypsin) [nM] | IC50 (MCF-7 cells) [µM] | IC50 (H838 cells) [µM] | IC50 (H23 cells) [µM] | IC50 (H157 cells) [µM] | IC50 (PC-3 cells) [µM] | IC50 (HMEC-1 cells) [µM] | IC50 (H460 cells) [µM] | MBC, S. aureus [1] | MIC, S. aureus [1] [µM] | MBC, MRSA [2] [µM] | MBC, C. albicans [3] | MIC, C. albicans [3] [µM] | MBC, E. coli [4] | MIC, E. coli [4] [µM]
3 | CC[C@H](C)[C@@H]1NC(=O)[C@H](CO)NC(=O)[C@H](Cc2ccccc2)NC(=O)[C@H]([C@@H](C)O)NC(=O)[C@H](Cc2c[nH]c3ccccc23)NC(=O)[C@@H](NC(=O)CNC(=O)[C@H](CCCNC(=N)N)NC(=O)[C@H](CC(C)C)NC(=O)[C@H](C)NC(=O)[C@@H](N)CO)CSSC[C@@H](C(=O)N[C@@H](CC(C)C)C(N)=O)NC(=O)[C@@H]2CCCN2C(=O)[C@H](CCCCN)NC(=O)[C@@H]2CCCN2C(=O)[C@@H]2CCCN2C1=O [F-SL] (H-SALRGCWTFSIPPKPCL-NH2; disulfide 6-16) | >512 | 309 | 202 ± 10.6 | 59.7 ± 2.72 | 79.1 ± 6.41 | 101 ± 1.74 | 159 ± 6.44 | 574 ± 9.41 | 66 ± 2.64 | >512 µM | >512 | >512 | >512 µM | >512 | >512 µM | >512
